Patent publication EP0337731B1, “Peptide antibiotics” (ELI LILLY AND COMPANY, priority 1988, dated 1989)

Test system: A54145.1, A54145.2, and A54145.3
Assay: Resistance to antibiotics, sensitivity discs on seeded ISP No. 2 agar plates
Assay type: cell-based, Streptomyces fradiae
Protocol: A54145.1, A54145.2, and A54145.3 had identical antibiotic-resistance patterns. The strains were resistant to lincomycin at 2 µg and penicillin G at 10 units. The strains were sensitive to bacitracin at 10 units, cephalothin at 30 µg, gentamicin at 10 µg, neomycin at 30 µg, oleandomycin at 15 µg, rifampin at 5 µg, streptomycin at 10 µg, tetracycline at 30 µg, tobramycin at 10 µg and vancomycin at 30 µg.

Molecule: CC(=O)OCC1=C(C(=O)O)N2C(=O)[C@@H](NC(=O)Cc3cccs3)[C@H]2SC1 [cephalothin]
- antibiotic-resistance pattern (disc at 30 µg): sensitive

Molecule: CCC[C@@H]1C[C@@H](C(=O)N[C@@H]([C@H]2O[C@H](SC)[C@H](O)[C@@H](O)[C@H]2O)[C@@H](C)O)N(C)C1 [lincomycin]
- antibiotic-resistance pattern (disc at 2 µg): resistant

Molecule: CO[C@H]1C[C@H](O[C@H]2[C@H](C)[C@@H](O[C@@H]3O[C@H](C)C[C@H](N(C)C)[C@H]3O)[C@@H](C)C[C@@]3(CO3)C(=O)[C@H](C)[C@@H](O)[C@@H](C)[C@@H](C)OC(=O)[C@@H]2C)O[C@@H](C)[C@@H]1O [oleandomycin]
- antibiotic-resistance pattern (disc at 15 µg): sensitive

Molecule: CC1(C)S[C@@H]2[C@H](NC(=O)Cc3ccccc3)C(=O)N2[C@H]1C(=O)O [penicillin G]
- antibiotic-resistance pattern (disc at 10 units): resistant

Molecule: CO[C@H]1/C=C/O[C@@]2(C)Oc3c(C)c(O)c4c(O)c(c(/C=N/N5CCN(C)CC5)c(O)c4c3C2=O)NC(=O)/C(C)=C\C=C\[C@H](C)[C@H](O)[C@@H](C)[C@@H](O)[C@@H](C)[C@H](OC(C)=O)[C@@H]1C [rifampin]
- antibiotic-resistance pattern (disc at 5 µg): sensitive

Molecule: [H]/N=C(/N)N[C@H]1[C@H](O)[C@@H](O)[C@H](O[C@@H]2O[C@@H](C)[C@](O)(C=O)[C@H]2O[C@@H]2O[C@@H](CO)[C@H](O)[C@@H](O)[C@@H]2NC)[C@@H](N/C(N)=N\[H])[C@@H]1O [streptomycin]
- antibiotic-resistance pattern (disc at 10 µg): sensitive

Molecule: NC[C@H]1O[C@H](O[C@H]2[C@H](O)[C@@H](O[C@H]3O[C@H](CO)[C@@H](O)[C@H](N)[C@H]3O)[C@H](N)C[C@@H]2N)[C@H](N)C[C@@H]1O [tobramycin]
- antibiotic-resistance pattern (disc at 10 µg): sensitive

Molecule: CN[C@H](CC(C)C)C(=O)N[C@H]1C(=O)N[C@@H](CC(N)=O)C(=O)N[C@H]2C(=O)N[C@H]3C(=O)N[C@H](C(=O)N[C@H](C(=O)O)c4cc(O)cc(O)c4-c4cc3ccc4O)[C@H](O)c3ccc(c(Cl)c3)Oc3cc2cc(c3O[C@@H]2O[C@H](CO)[C@@H](O)[C@H](O)[C@H]2O[C@H]2C[C@](C)(N)[C@H](O)[C@H](C)O2)Oc2ccc(cc2Cl)[C@H]1O [vancomycin]
- antibiotic-resistance pattern (disc at 30 µg): sensitive

Molecule: bacitracin
- antibiotic-resistance pattern (disc at 10 units): sensitive

Molecule: gentamicin
- antibiotic-resistance pattern (disc at 10 µg): sensitive

Molecule: neomycin
- antibiotic-resistance pattern (disc at 30 µg): sensitive
